Test: Metabolic stability in dog hepatocytes
Format: in vitro ADME
Conditions: cryopreserved hepatocytes
Method: Cryopreserved hepatocytes were carefully thawed in a 37 °C water bath for approximately 1 min, and transferred to a tube containing pre-warmed thawing medium. The supernatants were removed and the pellets were resuspended in KHB at a final cell density of 1 × 10^6 cells/mL, based on hemocytometer counting using trypan blue exclusion. A ETN101 solution was prepared by dissolving ETN101 in water at 4 mM and diluted by KHB at the concentration of 4 μM of ETN101. Sixty microliters each of hepatocyte suspensions and 4 μM of ETN101 were added in a 96-well plate and incubated for 0, 5, 15, 30, and 45 min at 37 °C in a CO2 incubator. All incubations were conducted in triplicates. Reactions were terminated by the addition of 120 μL of ice-cold acetonitrile and followed by vortex mixing. After centrifugation at 13,000 rpm for 8 min at 4 °C, 5 μL of internal standard (IS, camptothecin in acetonitrile at 780 ng/mL) was added to 60 μL of supernatant. A 2 μL aliquot was injected into the LC-MS/MS system. The reliability of the analysis was confirmed by incorporating three different levels of quality control samples at the beginning and end of each analytical batch. The disappearance rate (k) of ETN101 was calculated by determined peak area ratio of ETN101 to IS over incubation period. Subsequently, half-life (t1/2), intrinsic clearance (Clint), and intrinsic hepatic clearance (Clint,hep) of ETN101 in human and animal hepatocytes were calculated using the following equation [34]: t1/2(min)=ln2/−k(elimination slope) ClintμL/min/10^6 cells=ln2/t1/2×μL incubation/hepatocytes (10^6 cells) Clint,hepmL/min/kg=Clint/1000×A×10^6 cells/g liver×B g liver/kg body weight […]
For the metabolic stability assay, an LC-MS/MS system was employed, consisting of an Agilent 1260 series HPLC system (Agilent Technologies Inc., Santa Clara, CA, USA) coupled to an API 4000 mass spectrometer (AB SCIEX, Concord, Vaughan, ON, Canada) equipped with a turbo electrospray interface. […] ETN101 and IS were detected using multiple reaction monitoring (MRM) mode under positive electrospray ionization (ESI). […]

half-life at 2 µM (45 min incubation at 37 °C): 1.88 h
hepatocyte CLint at 2 µM (45 min incubation at 37 °C): 12.3 µL/min/1e6 cells
CLint scaled at 2 µM (scaled from Clint): 84.6 mL/min/kg
SMILES: NCC(N)C(=O)Nc1ccc(-c2nc3ccccc3s2)cc1 (stereo not drawn) [ETN101, 2,3-diamino-N-(4-(benzo[d]thiazol-2-yl)phenyl)propanamide]

From PMC11356571, “The Comparative Metabolism of a Novel Hepatocellular Carcinoma Therapeutic Agent, 2,3-Diamino-N-(4-(benzo[d]thiazol-2-yl)phenyl)propanamide, in Human and Animal Hepatocytes” (Metabolites, 2024)
